Consider five substances from publication PMC11091976, “Shorter Peptide Nucleic Acid Probes Improve Affibody-Mediated Peptide Nucleic Acid-Based Pretargeting” (ACS Pharmacology & Translational Science, 2024).

The test system of data set [1] is HP15. In words: UV melting of PNA:PNA duplex with primary probe HP15. Format: physicochemical. The settings on record: UV 260 nm, 20-95 °C at 1 °C/min, 5 μM each probe, 10 mM phosphate buffer, 10 mM KCl, pH 7.4. The protocol: (§1) The melting temperatures of secondary probes after duplex formation with primary probes were also measured by monitoring the absorbance at 260 nm as a function of temperature (see Figure S23). All probe pairs had melting temperatures well above 37 °C (body temperature) and ranged from 51 °C for the HP6:HP19 pair with 6 complementary bases to 82 °C for the previously studied HP15:HP18 pair with 15 complementary bases (see Figure 3B and Table 2). […] This secondary structure is typically adopted by antiparallel and L-amino acid-modified PNA–PNA duplexes at neutral pH.[49]
(§2) Figure S23: Normalized temperature melting profiles from 20–95°C for different primary and secondary probe pairs. UV melting curves at 260 nm. (A) HP15 (15-mer) toward secondary 15-, 12- and 9-mers. (B) HP12 (12-mer) toward secondary 12-, 9-, 8-, 7- and 6-mers. (C) HP9 (9-mer) toward secondary 9-, 8-, 7- and 6-mers. (D) HP6 (6-mer) toward secondary 6-mer.
(§3) Concentrations of duplexes in A–D are 5 μM in 10 mM […] with 10 mM KCl at pH 7.4.
(§4) (also on this page, place not known: Fraction melted Fraction meltedFraction melted Fraction melted) […]
(§5) Supplementary Material and methods […]
(§6) Biophysical characterization of PNA:PNA duplexes using CD Spectroscopy and […]
(§7) Circular dichroism (CD) and UV melts of PNA:PNA duplexes were measured on a CD spectrometer (Applied Photophysics, Leatherhead, UK) with Peltier temperature control and an external temperature probe. […]
(§8) from 20°C to 95°C with a 1°C/min temperature gradient. Simultaneously, the UV absorbance at 260 nm was recorded as a function of temperature. Fraction melted data was calculated […]
(§9) Fraction melted = 1 ― UVds― UVss , where UVss and UVds are the UV absorbances at 95°C and 20°C, respectively. The melting temperature (Tm) was determined as the maximum of the first derivative of the melting curve and was computed using the Global 3 analysis software (Applied Photophysics, […]
CD spectra in the range of 200–300 nm were recorded for all hybridized PNA:PNA pairs at 20°C before and after the UV melting experiments. […]

In data set [2] the target is Z-HP15. As to conditions: SPR, primary probe HP15; cited from earlier work. An excerpt:
Table 2 Dissociation Rate Constants (kds) and Melting Temperatures (Tms) of the PNA Probe Duplexes ^a | column: kd (s^–1)
Background: In SPR one partner is held on a chip, and binding of the other changes the refractive index at the surface.

In data set [3] the test system is HP12. Nature of the data set: UV melting of PNA:PNA duplex with primary probe HP12. The settings on record: UV 260 nm, 20-95 °C at 1 °C/min, 5 μM each probe, 10 mM phosphate buffer, 10 mM KCl, pH 7.4. Format: physicochemical. The method, then: as §1, §2, §3, §4, §5, §6
(§10) Circular dichroism (CD) and UV melts of PNA:PNA duplexes were measured on a CD spectrometer (Applied Photophysics, Leatherhead, UK) with Peltier temperature control and an external temperature probe. RP-HPLC purified and lyophilized PNA probes were dissolved in 10 mM phosphate buffer with 10 mM KCl at pH 7.4. Samples contained both primary and complementary secondary PNA probes at a final concentration of 5 µM for each probe. These samples were initially heated to 95°C for five minutes, allowed to cool to room temperature, and then transferred to a quartz cuvette with a 1.0 cm path length. A temperature probe was inserted into the solution through the cuvette's rubber cap. […]
as §8, §9
(§11) CD spectra in the range of 200–300 nm were recorded for all hybridized PNA:PNA pairs at 20°C before and after the UV melting experiments. All CD spectra were baseline subtracted and presented as an average of five scans.

Data set [4] is described as follows: Solubility of secondary probes in labeling buffer. Format: physicochemical. The settings on record: 0.2 M NH4Ac; for increase in solubility compared to the 15-mer HP18 / maximum soluble concentration: pH 5.5, 25 °C; for maximum soluble concentration: heated 95 °C 5 min, 18-h static incubation, centrifugation, UV 260 nm of supernatant, highest concentration with at least 95% still soluble, duplicates. The protocol:
However, as we moved to shorter PNA oligomers, solubility saw a substantial, nonlinear increase. […] For example, at 25 °C, the maximum soluble concentration of HP17 (12-mer) was around 6 μM. […]
pH 5.5 at 25°C. Dilution series of HPLC-purified and lyophilized secondary probes (1, 3, 6, 9, 13, 26, 39, 52 and 65 µM) for […]
samples were heated at 95°C for five minutes and concentration of the soluble fraction was determined by UV absorption at 260 nm before (grey bars), and after (black bars) an 18-hour static incubation at 25°C. Duplicates were prepared of all samples and the data is presented as the mean ± SD. The maximum soluble concentration of each probe, indicated in panels A-E as a dotted line, was defined as the highest concentration at which at least 95% is still in the soluble fraction after an 18-hour incubation at 25°C. PNA-aggregates are temperature-labile, as exemplified in panel C for 82 µM HP17.
After an 18-hour incubation 25°C, 6 µM is left in the soluble fraction (left black bar) but heating the sample at 95 °C for five minutes completely redissolved HP17 aggregates into solution (right black bar).
(§12) (1 picture or pasted object on this page, not shown here)
Supplementary Material and methods
Solubility of secondary probes
HPLC-purified and freeze-dried secondary probes were resuspended in 10 mM NaAc, pH 3.5-3.6 and freeze-dried in smaller aliquots. The secondary probes were re-dissolved in 0.2 M NH4Ac, pH 5.5, and the samples were heated at 95 °C for five minutes to ensure complete dissolvement. Dilution series of secondary probes (1, 3, 6, 9, 13, 26, 39, 52 and 65 μM) for […]
NH4Ac, pH 5.5. The samples were then left for an 18-hour static incubation at 25 C, before being centrifugated at 21,100 x g for 5 minutes on a standard benchtop centrifuge (Eppendorf). The supernatants were transferred to fresh 1.5 mL Eppendorf-tubes, and the […]

For data set [5], the target named is Z-HP15. In words: SPR off-rate screening (single-cycle kinetics), immobilized Z-HP15. Format: binding. As to conditions: primary probe HP15 (immobilized Z-HP15), 25 °C, PBS-T pH 7.4, 120 nM HP16/HP20 or 362 nM HP21/HP19, dissociation 150 min, 1:1 model, duplicates. The method, then: (§13) The stability of new pretargeting probe combinations was assessed using SPR, and duplex melting temperatures were measured with UV–vis spectroscopy. In SPR, a high concentration of the secondary probe was injected over immobilized primary agents, and the dissociation of the hybridized complexes was monitored over 150 min (see Figures 3A, S22, and Table 2).
(§14) We utilized SPR on a Biacore T200 instrument (Cytiva) to examine how secondary PNA probes (6-mer HP19, 7-mer HP21, 8-mer HP20, and 9-mer HP16) bind to primary agents. These experiments were conducted using dextran-coated CM5 sensor chips and PBS-T buffer at pH 7.4. The ligands were immobilized through a standard EDC/NHS coupling method, and the chip surface was sealed with ethanolamine. A reference surface with no primary agent was also included.
(§15) For ranking the off-rate (kd) of the secondary probes, we employed single-cycle kinetics (SCK) at 25 °C with a flow rate of 50 μL/min. […] Secondary PNA probes were injected at various concentrations, and dissociation was monitored for 10,000 s. To regenerate the chip surface, we used two 30 s injections of 10 mM glycine-HCl, pH 1.5.
(§16) All SPR experiments were performed in duplicate, and data analysis was conducted using the Biacore T200 Evaluation software version 2.0 with a 1:1 binding model.
(§17) Figure S22: Representative SPR sensorgrams of the dissociation phase of HP16 (9-mer), HP20 (8-mer), HP21 (7-mer) and HP19 […]
(§18) After injection with the secondary probe
(§19) (120 nM of HP16 and HP20 or 362 nM of HP21 and HP19) the dissociation of the formed complex was followed for 150 minutes. All experiments were done in duplicates, and the data presented is double-referenced (reference channel and buffer injection are subtracted).
as §12

Data set [6] addresses Z-HP9. In words: SPR off-rate screening (single-cycle kinetics), immobilized Z-HP9. As to conditions: primary probe HP9 (immobilized Z-HP9), 25 °C, PBS-T pH 7.4, 120 nM HP16/HP20 or 362 nM HP21/HP19, dissociation 150 min, 1:1 model, duplicates. Format: binding. The protocol:
as §13, §14, §15, §16, §17, §18, §19, §12

The target of data set [7] is Z-HP12. Nature of the data set: SPR off-rate screening (single-cycle kinetics), immobilized Z-HP12. Format: binding. As to conditions: primary probe HP12 (immobilized Z-HP12), 25 °C, PBS-T pH 7.4, 120 nM HP16/HP20 or 362 nM HP21/HP19, dissociation 150 min, 1:1 model, duplicates. The method, then:
as §13, §14, §15, §16, §17, §18, §19, §12

For data set [8], the system named is HP6. Nature of the data set: UV melting of PNA:PNA duplex with primary probe HP6. Format: physicochemical. As to conditions: UV 260 nm, 20-95 °C at 1 °C/min, 5 μM each probe, 10 mM phosphate buffer, 10 mM KCl, pH 7.4. The method, then: as §1
Figure S23: Normalized temperature melting profiles from 20–95°C for different primary and secondary probe pairs. UV melting curves at 260 nm. […]
as §7, §8, §9

In data set [9] the test system is HP9. In words: UV melting of PNA:PNA duplex with primary probe HP9. Format: physicochemical. The settings on record: UV 260 nm, 20-95 °C at 1 °C/min, 5 μM each probe, 10 mM phosphate buffer, 10 mM KCl, pH 7.4. The method, then:
as §1, §2, §3, §4, §5, §6, §10, §8, §9, §11

Data set [10] concerns Z-HP9. In words: Multicycle kinetic SPR, immobilized Z-HP9. As to conditions: MCK SPR. Format: binding. The method, then:
as §14
Association and dissociation times were set at 700 and 1800 s, respectively, with regeneration accomplished through a 30 s injection of 10 mM glycine-HCl, pH 1.5.
as §16

Read-outs that look alike come from different tables or passages of the source. Where only a bound is given, the exact number is not on record here.

With “DOTA-AEEA-SS-atcaacaccagg-EEY-NH2 [HP17, 12-mer secondary PNA probe with DOTA]”, the Tm (usually the temperature at which the thermal transition is half complete) came to 78 °C in data set [1] and 75 °C in data set [3]. Further, the kd in data set [2] was <10^–5 ^b s^–1. The “increase in solubility compared to the 15-mer HP18” value in [4] was “approximately 2 fold”. In data set [4], this substance displayed a maximum soluble concentration of 6 µM. Besides, in [4] (pH 5.5, 82 µM sample reheated at 95 °C for 5 min after 18 h at 25 °C, UV 260 nm), the “solubility after 5 min at 95 °C” value is reported as “exceeded 82 μM”.
Regarding “DOTA-AEEA-SS-accagg-EEY-NH2 [HP19, 6-mer secondary PNA probe with DOTA]”, the kd is reported as 5.0 × 10^–4 s^–1 in [5], 2.8 × 10^–4 s^–1 in data set [6] and 6.2 × 10^–4 s^–1 in [7]. For the same substance, the Tm was found to be 51 °C in [8], 56 °C in data set [3] and 55 °C in data set [9].
Take “DOTA-AEEA-SS-atcatcaacaccagg-EEY-NH2 [HP18, 15-mer secondary PNA probe with DOTA]”: the Tm in data set [1] stood at 82 °C. In data set [2], the kd is given as <10^–5 ^b s^–1. For the same substance, in data set [4], the maximum soluble concentration was 3 µM.
With “DOTA-AEEA-SS-acaccagg-EEY-NH2 [HP20, 8-mer secondary PNA probe with DOTA]”, the kd in data set [5] is recorded as 1.4 × 10^–5 s^–1; in [6], 2.6 × 10^–5 s^–1; in data set [7], 1.6 × 10^–5 s^–1; in data set [10] (primary probe HP9, 25 °C), 6.6 × 10^–5 s^–1; in [10] (primary probe HP9, 37 °C), 1.7 × 10^–4 s^–1. Further, the ka in data set [10] (primary probe HP9 (Z-HP9 immobilized), 25 °C, 1.4-70 nM, 1:1 model, duplicates) is listed as 1.2 × 10^5 M^–1 s^–1; in data set [10] (primary probe HP9, 37 °C) it was 2.2 × 10^5 M^–1 s^–1. Besides, the Kd – broadly, a measure of binding affinity in units of concentration – was determined as 550 pM in data set [10] (primary probe HP9, 25 °C) and 790 pM in data set [10] (primary probe HP9, 37 °C). The values for the Tm in [3] and in data set [9] were 66 °C and 64 °C, respectively. The “increase in solubility compared to the 15-mer HP18” value in data set [4] is recorded as around 100 fold. Moreover, the maximum soluble concentration in [4] was determined as 370 µM.
In the case of “DOTA-AEEA-SS-caccagg-EEY-NH2 [HP21, 7-mer secondary PNA probe with DOTA]”, the kd in data set [5] is 5.5 × 10^–5 s^–1; in [6], 9.2 × 10^–5 s^–1; in data set [7], 4.5 × 10^–5 s^–1. Besides, the Tm in data set [3] and in data set [9] was 60 °C throughout.
